Measured values as given in paper PMC11475369, “Exploring the Potential of Synthetic Cannabinoids: Modulation of Biological Activity of Normal and Cancerous Human Colon Epithelial Cells” (Cells, 2024).
Values after ≈ are worked out from the molar mass of the structure shown. Values joined by “and” are separate entries in the source; they are usually repeats but may differ in a detail not shown here. Equal values may be shown once.

What was measured:
HT29 cells = test: Neutral Red (NR) uptake assay, viability of HT29 cells; type: cell-based; settings: Homo sapiens, HT-29; HT29 colon tumor cells, 24 h incubation
Protocol: (§1) The HT29 cell line (ATCC no. HTB-38) (human colon adenocarcinoma) was used in the present study. Cells were cultivated in RPMI 1640 culture medium with 10% fetal calf serum (FCS) (GibcoTM, Paisley, UK), supplemented with antibiotics (100 U/mL penicillin and 100 μg/mL streptomycin) (Sigma, St. Louis, MO, USA). The cell culture was performed in standard conditions, i.e., at 37 °C in a humidified atmosphere with 5% CO2. The CCD 841 CoTr cell line (ATCC no. CRL-1807) (human normal colon epithelium) was cultivated in RPMI 1640 +DMEM (1:1) medium (Sigma, St. Louis, MO, USA) with 10% FCS and the addition of antibiotics. The culture was carried out at 34 °C in a 5% CO2/95% air atmosphere.
(§2) After seeding (1 × 10^5 cells/mL) in a 96-well plate, the cells were incubated for 24 h. Thereafter, the tested compounds (100 μL) at a concentration range of 0–200 μg/mL in the culture medium were added to the wells (100 μL). The incubation lasted for 24 h. After that time, the culture medium was removed and a 0.4% Neutral Red solution in the culture medium was added to each well. The incubation was continued for another 3 h. After the incubation, the medium with the NR dye was discarded, and 4% paraformaldehyde in 1% CaCl2 was added for cell fixation (200 μL) and incubated for 3 min. Intracellular dye deposits were solubilized using 1% […] in a 50% ethanol solution (100 μL). The plates were then gently shaken (20 min.) at room temperature to dissolve and release the dye from the cells. Finally, spectrophotometric measurement was performed at 540 nm using an EL800 Universal Microplate Reader (BioTek Instruments, Winooski, VT, USA).

CCD 841 CoTr cells [1] = test: Flow cytometry (PI) cell cycle analysis of CCD 841 CoTr cells; type: cell-based, human; settings: 25 μg/mL, 24 h
Protocol: In the flow cytometric study, we assessed the impact of the cannabinoids at a concentration of 25 μg/mL on the distribution of cell cycle phases in the normal and cancer cells after 24 h incubation. Both adhered, and non-adsorbed (floating) cells were used to perform the analyses. They were collected after 24 h of incubation with the tested cannabinoids and centrifuged (3000 rpm/5 min.). Next, the cell pellet was rinsed and suspended in PBS w/o Ca^2+ and Mg^2+ ions and centrifuged again (3000 rpm/5 min.). The cell pellet was suspended and fixed in 70% ethanol (1 mL). Untreated cells served as a control. The cells were stored at −20 °C for 1 week. After that time, in accordance with the manufacturer protocol, the cells were subjected to the PI staining procedure (PI/RNase Staining Buffer, BD PharmingenTM, BD Biosciences, San Jose, CA, USA). Briefly, 1 mL of PBS w/o Ca^2+ and Mg^2+ ions was added to 1 mL of ethanol and incubated with gentle stirring for 5 min. at room temperature. Next, the cells were centrifuged (3000 rpm/5 min.) and suspended in PBS w/o Ca^2+ and Mg^2+ ions with gentle stirring for 5 min. at room temperature. The cells were centrifuged once again (3000 rpm/5 min.) and the cell pellet was suspended in 500 μL of PI/RNase Staining Buffer. The incubation was carried out for 15 min. at room temperature. Finally, the intensity of the PI fluorescence was measured using FACS Calibur (BD Pharmingen^TM). The obtained data were analyzed using Cell Quest Pro Version 6.0. for the Macintosh operating system (BD Pharmingen^TM). The percentage of cells in the appropriate phases of the cycle was calculated based on all analyzed gated cells. A total of 10,000 events were measured per sample.

[2] = Ferric-reducing antioxidant power assay (FRAP)
Protocol: The antioxidant activity in the FRAP method determines the ability of the analyzed compounds to reduce iron ions. This allowed for the direct determination of the reducing capacity of the tested cannabinoids. The principle of the method was based on measuring the reduction in the tPtZ compound (iron-2,4,6-tripyridyl-S-[…] complex) under the influence of the cannabinoids. The following concentrations of the cannabinoids were prepared: 25, 100, and 200 μg/mL in Milli-Q water. […] The procedure was carried out as follows: each compound, at a concentration of 1 mL, was mixed with 1 mL of 0.2 M sodium phosphate buffer (pH 6.6) and 1 mL of 1% potassium ferricyanide. The mixture was vortexed and incubated for 30 min. at 37 °C. After the incubation, 1 mL of 10% trichloroacetic acid (w/v) was added to each sample, and the preparations were centrifuged at 1000 g for 5 min. Next, an equal volume of Milli-Q water and the upper layer of the samples (1 mL + 1 mL) were mixed with 100 μL of 0.1% ferric chloride and subjected to spectrophotometric reading at 700 nm using an EL800 Universal Microplate Reader (BioTek Instruments, Winooski, VT, USA). The higher the absorbance, the higher the iron ion-reducing activity of the tested cannabinoids is.

[3] = DPPH free radical scavenging test
Protocol: The DPPH biochemical test is used to determine the antioxidant potential of tested compounds. This method is based on the ability of compounds to reduce the stable dark purple 2,2-diphenyl-1-picrylhydrazyl radical (DPPH) to yellow diphenyl-picrylhydrazine. The following concentrations of the tested cannabinoids were prepared: 25, 100, and 200 μg/mL in pure ethanol. Next, the DPPH solution (0.2 mg/mL in ethanol) was prepared. As a quantitative standard, Trolox in increasing concentrations (1–50 μg/mL) was prepared in ethanol. The procedure was carried out as follows: 100 µL of the specified concentrations of the tested cannabinoids or standard points were added to the wells of a 96-well plate in eight replicates. Next, 100 μL of a DPPH solution was added to 100 μL of each sample or standard in a 96-well plate. Subsequently, 20 min. incubation at room temperature was carried out, and spectrophotometric reading was performed at 515 nm using an EL800 Universal Microplate Reader (BioTek Instruments, Winooski, VT, USA). Decreasing absorbance meant increasing antioxidant activity of the preparations. The final value of the free radical scavenging activity of the cannabinoids was calculated based on the standard curve and the following formula:DPPH scavenging effect (%) = [(Xcontrol − Xcompound/Xcontrol) × 100]
Xcontrol is the absorbance of the control, and Xcompound is the absorbance in the presence of cannabinoids

CCD 841 CoTr cells [4] = test: Neutral Red (NR) uptake assay, viability of CCD 841 CoTr cells; type: cell-based; settings: Homo sapiens; CCD 841 CoTr colon normal cells, 24 h incubation
Protocol: as §1, §2

[5] = cannabinoid concentration 25 μg/mL
[6] = cannabinoid concentration 100 μg/mL
[7] = cannabinoid concentration 200 μg/mL

Row | SMILES | IC50 (HT29 cells) | Effect on cell cycle transitions (in words) (CCD 841 CoTr cells [1]) | Percentage of cells in G1 phase (CCD 841 CoTr cells [1]) | Percentage of cells in G2 phase (CCD 841 CoTr cells [1]) | Percentage of cells in S phase (CCD 841 CoTr cells [1]) | Percentage of cells in sub-G1 phase (CCD 841 CoTr cells [1]) | Reduction in the number of cells in the sub-G1 phase compared to the control (CCD 841 CoTr cells [1]) | Reduction Value Corresponding to the Ascorbic Acid Concentration (FRAP) [2, 5] | Reduction Value Corresponding to the Ascorbic Acid Concentration (FRAP) [2, 6] | Reduction Value Corresponding to the Ascorbic Acid Concentration (FRAP) [2, 7] | Reduction Value Corresponding to the Trolox Concentration (DPPH) [3, 5] | Reduction Value Corresponding to the Trolox Concentration (DPPH) [3, 6] | Reduction Value Corresponding to the Trolox Concentration (DPPH) [3, 7] | Activity in reducing the free oxygen radical DPPH (in words) ([3]; lower concentrations (<100 μg/mL)) | IC50 (CCD 841 CoTr cells [4]) | Increase in the number of cells in the sub-G1 phase compared to the control (CCD 841 CoTr cells [1])
1 | CCCCCc1cc(O)c2c(c1)OC(C)(CCC=C(C)C)C=C2 (stereo not drawn) [CBC, cannabichromene] | 60.6 µg/mL (≈ 193 µM) | limited the transition of cells from the S to G2 phase | 32.31 ± 0.62% | 22.78 ± 0.86% | 23.38 ± 0.79 % | 15.17 ± 0.79 % | 6.96% | 0.151 ± 0.001 µg/mL | 0.453 ± 0.104 µg/mL | 1.008 ± 0.403 µg/mL | 0 µg/mL | 0 µg/mL | 0.487 ± 0.341 µg/mL | did not express any activity | 151 µg/mL (≈ 480 µM) | 
2 | CCCCCc1cc2c3c(c1)OC(C)(C)C1CCC(C)(CC31)O2 (stereo not drawn) [CBT, cannabicitran] | 53.9 µg/mL (≈ 171 µM) | caused the accumulation of cells in the S phase | 28.81 ± 0.86 % | 16.54 ± 0.72 % | 22.23 ± 0.15 % | 28.84 ± 0.66 % |  | 0.353 ± 0.110 µg/mL | 0.353 ± 0.201 µg/mL | 0.504 ± 0.258 µg/mL | 0.280 µg/mL and 0.280 ± 0.190 µg/mL | 0.487 ± 0.104 µg/mL | 0.593 µg/mL and 0.593 ± 0.278 µg/mL |  | 44.5 µg/mL (≈ 141 µM) | 6.71%
3 | CCCCCc1cc(O)cc(O)c1C/C=C(\C)CCC=C(C)C [abn-CBG, abnormal cannabigerol] | 13.7 µg/mL (≈ 43.2 µM) |  | 11.63 ± 0.83 % | 3.46 ± 0.79 % | 8.24 ± 0.56 % | 76.10 ± 2.21 % |  | 0.857 ± 0.316 µg/mL | 1.059 ± 0.328 µg/mL | 1.411 µg/mL and 1.411 ± 0.465 µg/mL | 0.074 ± 0.056 µg/mL | 0.216 ± 0.133 µg/mL | 0.264 ± 0.198 µg/mL |  | 14.1 µg/mL (≈ 44.6 µM) | 53.97%
